From patent US12545708B2, “Peptide for treatment of corona virus infection disease COVID-19 and use thereof” (DAEGU GYEONGBUK INSTITUTE OF SCIENCE AND TECHNOLOGY, priority 2020, dated 2026)

Experiments:
RBD = RBD (Severe acute respiratory syndrome coronavirus 2, UniProt P0DTC2); test: biochemical; format: binding, SARS-CoV2

## CC[C@H](C)[C@H](NC(=O)[C@H](CC(N)=O)NC(=O)[C@@H](NC(=O)[C@H](CC(N)=O)NC(=O)[C@H](Cc1ccc(O)cc1)NC(=O)[C@@H](NC(=O)[C@H](CC(N)=O)NC(=O)[C@H](CC(=O)O)NC(=O)[C@H](C)NC(=O)[C@H](CC(C)C)NC(=O)[C@H](CCC(N)=O)NC(=O)[C@H](CO)NC(=O)[C@H](CCCCN)NC(=O)[C@@H](N)CCSC)C(C)C)[C@@H](C)O)C(=O)N[C@H](C(=O)N[C@@H](CCCCN)C(=O)N[C@@H](CCC(=O)O)C(=O)N[C@@H](CC(N)=O)C(=O)N[C@H](C(=O)N[C@@H](CCC(N)=O)C(=O)N[C@@H](CC(N)=O)C(=O)N[C@@H](CCSC)C(=O)N[C@@H](CC(N)=O)C(=O)N[C@@H](CCC(=O)O)C(=O)N[C@@H](CCC(=O)O)C(=O)N[C@@H](CCC(N)=O)C(=O)N[C@@H](C)C(=O)N[C@@H](CCCCN)C(=O)N[C@H](C(=O)N[C@@H](Cc1ccccc1)C(=O)N[C@@H](CC(C)C)C(=O)N[C@@H](CC(=O)O)C(=O)N[C@@H](CCCCN)C(=O)N[C@@H](Cc1ccccc1)C(=O)N[C@@H](CC(N)=O)C(=O)N[C@@H](Cc1c[nH]cn1)C(=O)N[C@@H](CCC(=O)O)C(=O)N[C@@H](C)C(=O)N[C@@H](CCC(=O)O)C(=O)N[C@@H](CC(=O)O)C(=O)N[C@@H](CC(C)C)C(=O)N[C@@H](Cc1ccccc1)C(=O)N[C@@H](Cc1ccc(O)cc1)C(=O)N[C@@H](CCC(N)=O)C(=O)N[C@@H](CO)C(=O)N[C@@H](CO)C(=O)NCC(=O)N[C@@H](CC(C)C)C(=O)NCC(=O)N[C@@H](CCCCN)C(=O)NCC(=O)N[C@@H](CC(=O)O)C(=O)N[C@@H](Cc1ccccc1)C(=O)N[C@@H](CCCNC(=N)N)C(=O)O)[C@@H](C)O)C(C)C)[C@@H](C)O [PEP9]
HepG2 cell line
  change in cell viability: no significant change
HMC-3 cell line
  change in cell viability: no significant change
  decrease in the cell viability: about 10%
HEK293T cell line
  change in cell viability: no significant change
RBD
  Kd: 0.0345 µM
MRC-5 cell line
  change in cell viability: no significant change
